{"source": "ChEMBL document CHEMBL5154881", "about": "“Discovery of First-in-Class TAK1-MKK3 Protein-Protein Interaction (PPI) Inhibitor (R)-STU104 for the Treatment of Ulcerative Colitis through Modulating TNF-α Production” (J Med Chem, 2022)", "key": {"Mus musculus [1]": {"tested_on": "Mus musculus", "test": "Antiinflammatory activity against DSS-induced C57BL/6 mouse model of acute ulcerative colitis assessed as reduction in serum IL-6 levels administered intragastrically via gavage measured after 7 days by ELISA", "format": "functional, organism-based", "settings": "dose 1-10 mg/kg, route ig, time 7.0 day, DDE = dose-dependent effect"}, "[2]": {"test": "Metabolic stability in mouse liver microsomes assessed as intrinsic clearance", "format": "ADME, Microsome"}, "[3]": {"test": "Half life in 12 hr starved C57 mouse at 5 mg/kg, iv measured for 0.083 to 24 hrs post-dose by LC-MS-MS analysis", "format": "ADME, organism-based", "settings": "in vivo, time 0.083-24 hrs"}, "[4]": {"test": "Apparent clearance during terminal phase in 12 hr starved C57 mouse at 5 mg/kg, iv measured for 0.083 to 24 hrs post-dose by LC-MS-MS analysis", "format": "ADME, organism-based", "settings": "in vivo, time 0.083-24 hrs"}, "[5]": {"test": "MRT (0 to infinity) in 12 hr starved C57 mouse at 30 mg/kg, po measured for 0.083 to 24 hrs post-dose by LC-MS-MS analysis", "format": "ADME, organism-based", "settings": "in vivo, time 0.083-24 hrs"}, "Mus musculus [6]": {"tested_on": "Mus musculus", "test": "Anti-ulcerative colitis activity in DSS-induced C57BL/6 mouse ulcerative colitis model assessed as colon length recovery ratio at 10 mg/kg, IG via gavage measured after 7 days relative to control", "format": "functional", "settings": "time 7 day"}, "Mus musculus [7]": {"tested_on": "Mus musculus", "test": "Antiinflammatory activity against DSS-induced C57BL/6 mouse model of acute ulcerative colitis assessed as inhibition ratio of IL-6 protein expression at 3 mg/kg, IG via gavage measured after 7 days by ELISA relative to control", "format": "functional", "parameters": "scale not given: the % may be the effect or the level left", "settings": "time 7 day"}, "Mus musculus [8]": {"tested_on": "Mus musculus", "test": "Antiinflammatory activity against DSS-induced C57BL/6 mouse model of acute ulcerative colitis assessed as inhibition ratio of IL-6 protein expression at 10 mg/kg, IG via gavage measured after 7 days by ELISA relative to control", "format": "functional", "parameters": "scale not given: the % may be the effect or the level left", "settings": "time 7 day"}, "Mus musculus [9]": {"tested_on": "Mus musculus", "test": "Antiinflammatory activity against DSS-induced C57BL/6 mouse model of acute ulcerative colitis assessed as inhibition ratio of IL-6 mRNA expression in colon tissue at 3 mg/kg, IG via gavage measured after 7 days by RT-qPCR analysis relative to control", "format": "functional", "parameters": "scale not given: the % may be the effect or the level left", "settings": "time 7 day"}, "Mus musculus [10]": {"tested_on": "Mus musculus", "test": "Antiinflammatory activity against DSS-induced C57BL/6 mouse model of acute ulcerative colitis assessed as inhibition ratio of TNF-alpha mRNA expression in colon tissue at 1 mg/kg, IG via gavage measured after 7 days by RT-qPCR analysis relative to control", "format": "functional", "parameters": "scale not given: the % may be the effect or the level left", "settings": "time 7 day"}, "Mus musculus [11]": {"tested_on": "Mus musculus", "test": "Antiinflammatory activity against DSS-induced C57BL/6 mouse model of acute ulcerative colitis assessed as inhibition ratio of TNF-alpha mRNA expression in colon tissue at 10 mg/kg, IG via gavage measured after 7 days by RT-qPCR analysis relative to control", "format": "functional", "parameters": "scale not given: the % may be the effect or the level left", "settings": "time 7 day"}, "Mus musculus [12]": {"tested_on": "Mus musculus", "test": "Antiinflammatory activity against DSS-induced C57BL/6 mouse model of acute ulcerative colitis assessed as inhibition ratio of IL-23 mRNA expression in colon tissue at 3 mg/kg, IG via gavage measured after 7 days by RT-qPCR analysis relative to control", "format": "functional", "parameters": "scale not given: the % may be the effect or the level left", "settings": "time 7 day"}, "Mus musculus [13]": {"tested_on": "Mus musculus", "test": "Antiinflammatory activity against DSS-induced C57BL/6 mouse model of acute ulcerative colitis assessed as inhibition ratio of IL-23 mRNA expression in colon tissue at 10 mg/kg, IG via gavage measured after 7 days by RT-qPCR analysis relative to control", "format": "functional", "parameters": "scale not given: the % may be the effect or the level left", "settings": "time 7 day"}, "Mus musculus [14]": {"tested_on": "Mus musculus", "test": "Antiinflammatory activity against IL-10-/- C57BL/6 mouse model of ulcerative colitis assessed as inhibition ratio of IL-1beta protein expression at 3 mg/kg, IG via gavage and measured after 8 weeks by ELISA relative to control", "format": "functional", "parameters": "scale not given: the % may be the effect or the level left"}, "Mus musculus [15]": {"tested_on": "Mus musculus", "test": "Antiinflammatory activity against IL-10-/- C57BL/6 mouse model of ulcerative colitis assessed as inhibition ratio of IL-6 protein expression at 1 mg/kg, IG via gavage and measured after 8 weeks by ELISA relative to control", "format": "functional", "parameters": "scale not given: the % may be the effect or the level left"}, "Mus musculus [16]": {"tested_on": "Mus musculus", "test": "Antiinflammatory activity against IL-10-/- C57BL/6 mouse model of ulcerative colitis assessed as inhibition ratio of IL-6 protein expression at 3 mg/kg, IG via gavage and measured after 8 weeks by ELISA relative to control", "format": "functional", "parameters": "scale not given: the % may be the effect or the level left"}, "Mus musculus [17]": {"tested_on": "Mus musculus", "test": "Antiinflammatory activity against IL-10-/- C57BL/6 mouse model of ulcerative colitis assessed as inhibition ratio of IL-6 protein expression at 10 mg/kg, IG via gavage and measured after 8 weeks by ELISA relative to control", "format": "functional", "parameters": "scale not given: the % may be the effect or the level left"}, "Mus musculus [18]": {"tested_on": "Mus musculus", "test": "Antiinflammatory activity against IL-10-/- C57BL/6 mouse model of ulcerative colitis assessed as inhibition ratio of TNF-alpha mRNA expression in colon tissue at 3 mg/kg, IG via gavage and measured after 8 weeks by RT-qPCR analysis relative to control", "format": "functional", "parameters": "scale not given: the % may be the effect or the level left"}, "Mus musculus [19]": {"tested_on": "Mus musculus", "test": "Inhibition of MKK3-p38 MAPK-elF4E signaling pathway in C57BL/6 mouse model of acute ulcerative colitis assessed as decrease in DSS-induced MK2 phosphorylation in colon tissue administered intragastrically via gavage measured after 7 days by Western blot analysis", "settings": "dose 1-50 mg/kg, time 7.0 day, DDE = dose-dependent effect"}, "[20]": {"target": "T1, Dual specificity mitogen-activated protein kinase kinase 3 (Mus musculus) (UniProt O09110)", "T1 sequence (whole entry)": "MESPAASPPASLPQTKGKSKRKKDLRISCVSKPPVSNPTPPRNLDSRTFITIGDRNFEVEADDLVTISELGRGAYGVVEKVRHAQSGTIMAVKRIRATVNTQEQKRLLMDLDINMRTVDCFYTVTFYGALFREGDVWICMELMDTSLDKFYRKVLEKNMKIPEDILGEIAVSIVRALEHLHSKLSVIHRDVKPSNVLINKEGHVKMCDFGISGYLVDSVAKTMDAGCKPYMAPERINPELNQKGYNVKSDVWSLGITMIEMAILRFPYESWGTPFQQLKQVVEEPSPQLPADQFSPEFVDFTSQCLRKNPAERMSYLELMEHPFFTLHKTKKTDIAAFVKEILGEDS", "test": "Binding affinity to MKK3 in mouse RAW264.7 cells assessed as increase in thermal stability by measuring change in melting temperature at 6.25 uM incubated for 24 hrs by CETSA", "format": "cell-based"}, "[21]": {"test": "Toxicity in C57 mouse assessed as body weight loss at 50 to 500 mg/kg, po administered daily for 14 days", "format": "organism-based", "settings": "in vivo, 336 h, dose 50-500 mg/kg, time 14 day"}, "Mus musculus [22]": {"tested_on": "Mus musculus", "test": "Anti-ulcerative colitis activity against DSS-induced ulcerative colitis C57BL/6 mouse model assessed as body weight recovery rate at 1 mg/kg, IG via gavage administered for 7 days and measured everyday relative to control", "format": "functional", "settings": "time 7 day"}, "[23]": {"test": "Toxicity in C57 mouse assessed as spleen damage at 50 to 500 mg/kg, po administered daily for 14 days", "format": "organism-based", "settings": "in vivo, 336 h, dose 50-500 mg/kg, time 14 day"}, "[24]": {"test": "Toxicity in C57 mouse assessed as kidney damage at 50 to 500 mg/kg, po administered daily for 14 days", "format": "organism-based", "settings": "in vivo, 336 h, dose 50-500 mg/kg, time 14 day"}, "[25]": {"test": "Toxicity in C57 mouse assessed as maximum tolerated dose administered orally daily for 14 days", "settings": "in vivo, route po, time 14 day"}, "Mus musculus [26]": {"tested_on": "Mus musculus", "test": "Anti-ulcerative colitis activity against DSS-induced ulcerative colitis C57BL/6 mouse model assessed as reduction in DAI recovery score ratio at 10 mg/kg, IG via gavage administered for 7 days and measured everyday relative to control", "format": "functional", "parameters": "scale not given: the % may be the effect or the level left", "settings": "time 7 day"}, "Mus musculus [27]": {"tested_on": "Mus musculus", "test": "Antiinflammatory activity against DSS-induced C57BL/6 mouse model of acute ulcerative colitis assessed as inhibition of IL-1beta mRNA expression in colon tissue administered intragastrically via gavage measured after 7 days by RT-qPCR analysis", "format": "functional, organism-based", "settings": "route ig, time 7.0 day, DDE = dose-dependent effect"}}}
{"compound": "COc1ccc([C@H]2CC(=O)c3cc(OC)cc(OC)c32)cc1", "values": [{"measurement": "Activity", "setting": "Mus musculus [1]", "value": "Dde"}, {"measurement": "CLH", "setting": "[2]", "value": 1730.2, "unit": "mL/min/g"}, {"measurement": "half-life", "setting": "[3]", "value": 9.29, "unit": "h"}, {"measurement": "CLz/F", "setting": "[4]", "value": 9.67, "unit": "mL/min/kg"}, {"measurement": "MRT inf", "setting": "[5]", "value": 12.5, "unit": "h"}, {"measurement": "Activity", "setting": "Mus musculus [6]", "value": 57.6, "unit": "%"}, {"measurement": "Activity", "setting": "Mus musculus [7]", "value": 53.5, "unit": "%"}, {"measurement": "Activity", "setting": "Mus musculus [8]", "value": 56.1, "unit": "%"}, {"measurement": "Activity", "setting": "Mus musculus [9]", "value": 68, "unit": "%"}, {"measurement": "Activity", "setting": "Mus musculus [10]", "value": 68.6, "unit": "%"}, {"measurement": "Activity", "setting": "Mus musculus [11]", "value": 78.5, "unit": "%"}, {"measurement": "Activity", "setting": "Mus musculus [12]", "value": 89.9, "unit": "%"}, {"measurement": "Activity", "setting": "Mus musculus [13]", "value": 90.5, "unit": "%"}, {"measurement": "Activity", "setting": "Mus musculus [14]", "value": 50, "unit": "%"}, {"measurement": "Activity", "setting": "Mus musculus [15]", "value": 31.4, "unit": "%"}, {"measurement": "Activity", "setting": "Mus musculus [16]", "value": 44.5, "unit": "%"}, {"measurement": "Activity", "setting": "Mus musculus [17]", "value": 57.6, "unit": "%"}, {"measurement": "Activity", "setting": "Mus musculus [18]", "value": 69.5, "unit": "%"}, {"measurement": "inhibition", "setting": "Mus musculus [19]", "value": "Dde"}, {"measurement": "ΔTm", "setting": "[20]", "value": 2, "unit": "°C"}, {"measurement": "Activity", "setting": "[21]", "value": "Non-Toxic"}, {"measurement": "Activity", "setting": "Mus musculus [22]", "value": 22.7, "unit": "%"}, {"measurement": "Activity", "setting": "[23]", "value": "Non-Toxic"}, {"measurement": "Activity", "setting": "[24]", "value": "Non-Toxic"}, {"measurement": "MTD at 336 h", "setting": "[25]", "value": 500, "unit": "mg/kg"}, {"measurement": "Activity", "setting": "Mus musculus [26]", "value": 45, "unit": "%"}, {"measurement": "Activity", "setting": "Mus musculus [27]", "value": "Dde"}]}
